# According to PubChem BioAssay (NCI):
#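 Five compound concentrations were applied to cells in 96-well plates for 48 hours; endpoints were derived by simple linear interpolation of the resulting dose-response curve. TGI is the concentration that stops growth completely.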
# Columns and labels:
# Assay in all cases: NCI-60 cell line screen, 48 h
# SN12C renal = tested on: SN12C renal
# MALME-3M melanoma = tested on: MALME-3M melanoma
# SK-MEL-2 melanoma = tested on: SK-MEL-2 melanoma
# NCI/ADR-RES ovarian = tested on: NCI/ADR-RES ovarian
# SF-539 CNS = tested on: SF-539 CNS
# TK-10 renal = tested on: TK-10 renal
# HCT-116 colon = tested on: HCT-116 colon
# NCI-H23 lung = tested on: NCI-H23 lung
# M14 melanoma = tested on: M14 melanoma
# OVCAR-5 ovarian = tested on: OVCAR-5 ovarian
# BT-549 breast = tested on: BT-549 breast
# NCI-H460 lung = tested on: NCI-H460 lung
# U251 CNS = tested on: U251 CNS
# SF-268 CNS = tested on: SF-268 CNS
# UACC-62 melanoma = tested on: UACC-62 melanoma
# IGROV1 ovarian = tested on: IGROV1 ovarian
# EKVX NSCLC = tested on: EKVX NSCLC
# HT29 colon = tested on: HT29 colon
# HS 578T breast = tested on: HS 578T breast
# MDA-MB-435 = tested on: MDA-MB-435
# HOP-62 NSCLC = tested on: HOP-62 NSCLC
# HCC-2998 colon = tested on: HCC-2998 colon
# CAKI-1 renal = tested on: CAKI-1 renal
# SK-OV-3 ovarian = tested on: SK-OV-3 ovarian
# MDA-N = tested on: MDA-N
# SNB-19 CNS = tested on: SNB-19 CNS
# RXF 393 renal = tested on: RXF 393 renal
# 786-0 renal = tested on: 786-0 renal
# SK-MEL-28 melanoma = tested on: SK-MEL-28 melanoma
# A549 NSCLC = tested on: A549 NSCLC
# PC-3 prostate = tested on: PC-3 prostate
# NCI-H522 lung = tested on: NCI-H522 lung
# MDA-MB-231 breast = tested on: MDA-MB-231 breast
# KM12 colon = tested on: KM12 colon
# OVCAR-8 ovarian = tested on: OVCAR-8 ovarian
# UACC-257 melanoma = tested on: UACC-257 melanoma
# T-47D breast = tested on: T-47D breast
# SK-MEL-5 melanoma = tested on: SK-MEL-5 melanoma
# ACHN renal = tested on: ACHN renal
# DU-145 prostate = tested on: DU-145 prostate
# HCT-15 colon = tested on: HCT-15 colon
# SF-295 CNS = tested on: SF-295 CNS
# NCI-H226 lung = tested on: NCI-H226 lung
# UO-31 renal = tested on: UO-31 renal
# OVCAR-4 ovarian = tested on: OVCAR-4 ovarian
# A498 renal = tested on: A498 renal
# RPMI-8226 leukemia = tested on: RPMI-8226 leukemia
# SR leukemia = tested on: SR leukemia
# MOLT-4 leukemia = tested on: MOLT-4 leukemia
# SNB-75 CNS = tested on: SNB-75 CNS
# MCF7 breast = tested on: MCF7 breast
# OVCAR-3 ovarian = tested on: OVCAR-3 ovarian
# LOX IMVI melanoma = tested on: LOX IMVI melanoma
# HOP-92 NSCLC = tested on: HOP-92 NSCLC
# COLO 205 colon = tested on: COLO 205 colon
# SW-620 colon = tested on: SW-620 colon
# K-562 leukemia = tested on: K-562 leukemia
# HL-60(TB) leukemia = tested on: HL-60(TB) leukemia
structure (smiles),measurement,setting,value
Cc1cc(N2CCOCC2)nc2ccc(Cc3ccc4nc(N5CCOCC5)cc(C)c4c3)cc12,TGI,SN12C renal,> 100 µM
same,TGI,MALME-3M melanoma,> 100 µM
same,TGI,SK-MEL-2 melanoma,> 100 µM
same,TGI,NCI/ADR-RES ovarian,> 100 µM
same,TGI,SF-539 CNS,71.3 µM
same,TGI,TK-10 renal,> 100 µM
same,TGI,HCT-116 colon,54.7 µM
same,TGI,NCI-H23 lung,> 100 µM
same,TGI,M14 melanoma,> 100 µM
same,TGI,OVCAR-5 ovarian,> 100 µM
same,TGI,BT-549 breast,> 100 µM
same,TGI,NCI-H460 lung,> 100 µM
same,TGI,U251 CNS,88.5 µM
same,TGI,SF-268 CNS,> 100 µM
same,TGI,UACC-62 melanoma,> 100 µM
same,TGI,IGROV1 ovarian,> 100 µM
same,TGI,EKVX NSCLC,> 100 µM
same,TGI,HT29 colon,49.3 µM
same,TGI,HS 578T breast,> 100 µM
same,TGI,MDA-MB-435,> 100 µM
same,TGI,HOP-62 NSCLC,> 100 µM
same,TGI,HCC-2998 colon,34.7 µM
same,TGI,CAKI-1 renal,> 100 µM
same,TGI,SK-OV-3 ovarian,> 100 µM
same,TGI,MDA-N,> 100 µM
same,TGI,SNB-19 CNS,> 100 µM
same,TGI,RXF 393 renal,> 100 µM
same,TGI,786-0 renal,> 100 µM
same,TGI,SK-MEL-28 melanoma,> 100 µM
same,TGI,A549 NSCLC,> 100 µM
same,TGI,PC-3 prostate,> 100 µM
same,TGI,NCI-H522 lung,> 100 µM
same,TGI,MDA-MB-231 breast,> 100 µM
same,TGI,KM12 colon,> 100 µM
same,TGI,OVCAR-8 ovarian,> 100 µM
same,TGI,UACC-257 melanoma,> 100 µM
same,TGI,T-47D breast,52.2 µM
same,TGI,SK-MEL-5 melanoma,36.6 µM
same,TGI,ACHN renal,> 100 µM
same,TGI,DU-145 prostate,> 100 µM
same,TGI,HCT-15 colon,> 100 µM
same,TGI,SF-295 CNS,> 100 µM
same,TGI,NCI-H226 lung,> 100 µM
same,TGI,UO-31 renal,> 100 µM
same,TGI,OVCAR-4 ovarian,> 100 µM
same,TGI,A498 renal,> 100 µM
same,TGI,RPMI-8226 leukemia,> 100 µM
same,TGI,SR leukemia,> 100 µM
same,TGI,MOLT-4 leukemia,> 100 µM
same,TGI,SNB-75 CNS,> 100 µM
same,TGI,MCF7 breast,> 100 µM
same,TGI,OVCAR-3 ovarian,> 100 µM
same,TGI,LOX IMVI melanoma,> 100 µM
same,TGI,HOP-92 NSCLC,> 100 µM
same,TGI,COLO 205 colon,26.8 µM
same,TGI,SW-620 colon,> 100 µM
same,TGI,K-562 leukemia,> 100 µM
CC1(c2ccccc2)O[C@@H]2C[C@H]3[C@@H]4CCC5=CC(=O)C=C[C@]5(C)[C@@]4(F)[C@@H](O)C[C@]3(C)[C@]2(C(=O)CO)O1 (some centres not stated),TGI,SN12C renal,26.1 µM
same,TGI,MALME-3M melanoma,27.5 µM
same,TGI,HL-60(TB) leukemia,39.4 µM
same,TGI,SK-MEL-2 melanoma,28.3 µM
same,TGI,NCI/ADR-RES ovarian,36 µM
same,TGI,TK-10 renal,41.6 µM
same,TGI,HCT-116 colon,27.8 µM
same,TGI,NCI-H23 lung,36.3 µM
same,TGI,M14 melanoma,30.6 µM
same,TGI,OVCAR-5 ovarian,33.1 µM
same,TGI,BT-549 breast,38.6 µM
same,TGI,NCI-H460 lung,29.8 µM
same,TGI,U251 CNS,33.3 µM
same,TGI,SF-268 CNS,49 µM
same,TGI,UACC-62 melanoma,35.6 µM
same,TGI,IGROV1 ovarian,38.7 µM
same,TGI,EKVX NSCLC,30.4 µM
same,TGI,HT29 colon,32.4 µM
same,TGI,HS 578T breast,45.4 µM
same,TGI,MDA-MB-435,33.1 µM
same,TGI,HOP-62 NSCLC,29.2 µM
same,TGI,HCC-2998 colon,33.3 µM
same,TGI,CAKI-1 renal,56 µM
same,TGI,MDA-N,35.3 µM
same,TGI,SNB-19 CNS,63.7 µM
same,TGI,RXF 393 renal,36.3 µM
same,TGI,786-0 renal,32.2 µM
same,TGI,SK-MEL-28 melanoma,30.8 µM
same,TGI,A549 NSCLC,29.2 µM
same,TGI,PC-3 prostate,30.9 µM
same,TGI,NCI-H522 lung,25 µM
same,TGI,MDA-MB-231 breast,24.5 µM
same,TGI,KM12 colon,30 µM
same,TGI,OVCAR-8 ovarian,41.7 µM
same,TGI,UACC-257 melanoma,33.1 µM
same,TGI,T-47D breast,41 µM
same,TGI,SK-MEL-5 melanoma,28.2 µM
same,TGI,ACHN renal,34.8 µM
same,TGI,DU-145 prostate,35 µM
same,TGI,HCT-15 colon,36 µM
same,TGI,SF-295 CNS,36.2 µM
same,TGI,NCI-H226 lung,31 µM
same,TGI,UO-31 renal,33 µM
same,TGI,OVCAR-4 ovarian,28.3 µM
same,TGI,A498 renal,33.9 µM
same,TGI,RPMI-8226 leukemia,17.2 µM
same,TGI,SR leukemia,76.9 µM
same,TGI,SNB-75 CNS,44.8 µM
same,TGI,MCF7 breast,29.9 µM
same,TGI,OVCAR-3 ovarian,28.7 µM
same,TGI,LOX IMVI melanoma,47.1 µM
same,TGI,HOP-92 NSCLC,38.4 µM
same,TGI,COLO 205 colon,27.8 µM
same,TGI,SW-620 colon,47.1 µM
same,TGI,K-562 leukemia,34.4 µM
